In brackets after ≈: the same amount, converted by molar mass. Bridge positions count the residues as written; N and C are the ends. Square brackets hold non-standard residues; d marks the D form. Triazole bridges read from a SMILES are 1,4-linked. Peptide text beside a SMILES is read from it. dLys(N3) = [N-]=[N+]=NCCCC[C@@H](N)C(=O)O; Pra = C#CC[C@H](N)C(=O)O
Legend:
[1] = system: S. aureus ATCC 25923; assay type: cell-based, Staphylococcus aureus
Experimental: (§1) The antimicrobial activity of peptides 9–26 was assessed against a range of reference bacterial strains such as S. aureus ATCC 25923, Staphylococcus epidermidis ATCC 12228, Bacillus megaterium Bm11, E. coli ATCC 25922, P. aeruginosa ATCC 27853, and A. baumannii ATCC 19606 by the broth microdilution assay to determine the minimal growth inhibitory concentration (MIC, Table 1).[59] First, we evaluated the effects produced by the lactam bridge between Lys and Glu residues placed at different positions along the peptide sequence of reference 9. […] When the i,i+7 cyclization strategy was applied (20–23), a dramatic decrease of bacterial inhibition activity was observed. Specifically, the peptides 20, 22, and 23 only affected the microbial growth of the Gram-positive B. megaterium Bm11, at 12.5 μM. […] Peptide 25, which differs from 9 by the presence of an olefin bridge rather than lactam one, dramatically lost the activity (MIC > 100 μM) vs both Gram-positive and Gram-negative strains.
(§2) The determination of MICs was conducted as previously reported.[61] Aliquots of 50 μL of bacterial culture appropriately diluted were added to each well of a 96-well plate to reach a final cell density of 1 × 10^6 CFU/mL and a final peptide concentration ranging from 100 to 0.78 μM (final volume 100 μL).

[2] = system: S. epidermidis ATCC 12228; assay type: cell-based, Staphylococcus epidermidis
Experimental: as §1, §2

[3] = system: B. megaterium Bm11; assay type: cell-based, Bacillus megaterium
Experimental: as §1, §2

[4] = system: E. coli ATCC 25922; assay type: cell-based, Escherichia coli
Experimental: as §1, §2

[5] = system: P. aeruginosa ATCC 27853; assay type: cell-based, Pseudomonas aeruginosa
Experimental: as §1, §2

[6] = system: A. baumannii ATCC 19606; assay type: cell-based, Acinetobacter baumannii
Experimental: as §1, §2

[7] = circular dichroism; details: water; pH ns; 25 °C; 50 uM

Row | SMILES | MIC S. aureus ATCC 25923 [1] | MIC S. epidermidis ATCC 12228 [2] | MIC B. megaterium Bm11 [3] | MIC E. coli ATCC 25922 [4] | MIC P. aeruginosa ATCC 27853 [5] | MIC A. baumannii ATCC 19606 [6] | helicity [7]
1 | CC[C@H](C)[C@H](NC(=O)[C@H](CCCNC(=N)N)NC(=O)CNC(=O)[C@H]1CCC(=O)NCCCC[C@H](NC(=O)[C@H](Cc2c[nH]c3ccccc23)NC(=O)[C@@H]2CCCN2C(=O)[C@@H](NC(=O)[C@@H](N)Cc2ccccc2)C(C)C)C(=O)N[C@@H](CO)C(=O)N[C@@H](CCCCN)C(=O)N[C@@H](Cc2ccccc2)C(=O)N1)C(=O)N[C@@H](CC(C)C)C(N)=O [compound 13] (H-FVPWKSKF[dE]GRIL-NH2; lactam 5-9) | >100 µM | >100 µM | 100 µM (≈ 159 µg/mL) | >100 µM | >100 µM | >100 µM | –
2 | CC[C@H](C)[C@H](NC(=O)[C@H](CCCNC(=N)N)NC(=O)[C@@H]1CCCCn2cc(nn2)C[C@H](NC(=O)[C@H](Cc2ccccc2)NC(=O)[C@H](Cc2c[nH]c3ccccc23)NC(=O)[C@@H]2CCCN2C(=O)[C@@H](NC(=O)[C@@H](N)Cc2ccccc2)C(C)C)C(=O)N[C@@H](CCCCN)C(=O)N[C@@H](Cc2ccccc2)C(=O)N[C@H](CC(C)C)C(=O)N1)C(=O)N[C@@H](CC(C)C)C(N)=O | – | – | – | – | – | – | 6%
3 | CC(C)C[C@H](NC(=O)[C@@H]1CCC(=O)NCCCC[C@H](NC(=O)[C@H](Cc2c[nH]c3ccccc23)NC(=O)[C@@H]2CCCN2C(=O)[C@@H](NC(=O)[C@@H](N)Cc2ccccc2)C(C)C)C(=O)N[C@@H](CO)C(=O)N[C@@H](CCCCN)C(=O)N[C@@H](Cc2ccccc2)C(=O)N[C@H](CC(C)C)C(=O)NCC(=O)N[C@@H](CCCNC(=N)N)C(=O)N1)C(N)=O [compound 21] (H-FVPWKSKF[dL]GREL-NH2; lactam 5-12) | >100 µM | >100 µM | 100 µM (≈ 159 µg/mL) | >100 µM | >100 µM | >100 µM | –
4 | CC[C@H](C)[C@H](NC(=O)[C@H](CCCNC(=N)N)NC(=O)CNC(=O)[C@H]1CCCCn2cc(nn2)C[C@H](NC(=O)[C@H](Cc2c[nH]c3ccccc23)NC(=O)[C@@H]2CCCN2C(=O)[C@@H](NC(=O)[C@@H](N)Cc2ccccc2)C(C)C)C(=O)N[C@@H](CO)C(=O)N[C@@H](CCCCN)C(=O)N[C@@H](Cc2ccccc2)C(=O)N1)C(=O)N[C@@H](CC(C)C)C(N)=O [compound 18] (H-FVPW[Pra]SKF[dLys(N3)]GRIL-NH2; triazole 5-9) | >100 µM | >100 µM | 6.25 µM (≈ 9.99 µg/mL) | 100 µM (≈ 160 µg/mL) | >100 µM | 100 µM (≈ 160 µg/mL) | –
5 | CC[C@H](C)[C@H](NC(=O)[C@H](CCCNC(=N)N)NC(=O)[C@@H]1CSSC[C@H](NC(=O)[C@H](Cc2ccccc2)NC(=O)[C@H](Cc2c[nH]c3ccccc23)NC(=O)[C@@H]2CCCN2C(=O)[C@@H](NC(=O)[C@@H](N)Cc2ccccc2)C(C)C)C(=O)N[C@@H](CCCCN)C(=O)N[C@@H](Cc2ccccc2)C(=O)N[C@H](CC(C)C)C(=O)N1)C(=O)N[C@@H](CC(C)C)C(N)=O [compound 26] (H-FVPWFCKF[dL]CRIL-NH2; disulfide 6-10) | 100 µM (≈ 167 µg/mL) | 6.25 µM (≈ 10.4 µg/mL) | 1.56 µM (≈ 2.6 µg/mL) | 25 µM (≈ 41.7 µg/mL) | >100 µM | 25 µM (≈ 41.7 µg/mL) | 8%
6 | CC[C@H](C)[C@@H]1NC(=O)[C@H](CCCNC(=N)N)NC(=O)CNC(=O)[C@H](NC(=O)[C@H](Cc2ccccc2)NC(=O)[C@H](CCCCN)NC(=O)[C@H](CO)NC(=O)[C@H](Cc2ccccc2)NC(=O)[C@H](Cc2c[nH]c3ccccc23)NC(=O)[C@@H]2CCCN2C(=O)[C@@H](NC(=O)[C@@H](N)Cc2ccccc2)C(C)C)CCCCNC(=O)CC[C@@H](C(N)=O)NC1=O [compound 10] | >100 µM | >100 µM | 50 µM (≈ 81.1 µg/mL) | >100 µM | >100 µM | >100 µM | –
7 | CC[C@H](C)[C@H](NC(=O)[C@H](CCCNC(=N)N)NC(=O)CNC(=O)[C@@H](CC(C)C)NC(=O)[C@@H]1CCC(=O)NCCCC[C@H](NC(=O)[C@@H]2CCCN2C(=O)[C@@H](NC(=O)[C@@H](N)Cc2ccccc2)C(C)C)C(=O)N[C@@H](Cc2ccccc2)C(=O)N[C@@H](CO)C(=O)N[C@@H](CCCCN)C(=O)N1)C(=O)N[C@@H](CC(C)C)C(N)=O [compound 14] (H-FVPKFSKE[dL]GRIL-NH2; lactam 4-8) | >100 µM | >100 µM | >100 µM | >100 µM | >100 µM | >100 µM | –

— paper PMC8389922, “First-in-Class Cyclic Temporin L Analogue: Design, Synthesis, and Antimicrobial Assessment” (Journal of Medicinal Chemistry, 2021)
